Where two headings read alike, the source gives them in different places.

One series deals with Recombinant mouse CD38 (Mus musculus (Mouse), UniProt P56528). In words: Mouse CD38 hydrolase assay (fluorescence, ε-NAD substrate). Type of series: biochemical. The settings on record: recombinant mouse CD38 0.4 nM, 12 μM ε-NAD, 30 min preincubation at 25° C., pH 7.4. On the procedure:
The ability of test compounds to inhibit mouse CD38 hydrolase activity was measured in a fluorescence-based assay using non-physiological NAD^+ substrate analogue 1,N^6-etheno NAD^+ (ε-NAD). Recombinant mouse CD38 (0.4 nM) was preincubated with test compounds in 384-well black microplates for 30 min at 25° C. in PBS (—Ca^2+/Mg^2+) containing 0.005% BSA (pH 7.4). CD38 hydrolase activity was initiated by addition of 12 μM ε-NAD, which yields the fluorescent product 1,N^6-etheno ADP-ribose. Formation of fluorescent product was followed using ClarioStar Plus (BMG) microplate reader by reading fluorescence (excitation λ=300 nm; emission λ=410 nm) at two time points, one immediately after substrate addition (t=0) and one at 6 min (t=6).
Data was analysed by subtracting the values detected at t=0 from t=6 to correct for variation in baseline fluorescence, and fluorescence values were converted to percent inhibition using the average of high signal (CD38 and ε-NAD) and low signal (CD38 and ε-NAD in the presence of a tool CD38 inhibitor) control wells. IC50 values were determined from a 10-point, half log concentration response curve with a four-parameter logistic equation.

Series [1] in a line: Tissue binding assay, brain homogenate (equilibrium dialysis). Type of series: in vitro ADME. The note with it: dialysis 4 hours at 37° C., dilution factor 4. On the procedure:
Buffer preparation. A basic solution was prepared by dissolving 14.2 g/L Na2HPO4 and 8.77 g/L NaCl in deionized H2O. An acidic solution was prepared by dissolving 15.6 g/L NaH2PO4·2H2O and 8.77 g/L NaCl in deionized H2O. Using the acidic solution, the basic solution was then titrated to pH 7.4±0.1 and stored at 4° C. for up to 1 month. The stop solution was 100% CH3CN containing 200 ng/mL tolbutamide, 200 ng/mL labetalol and 50 ng/mL metformin.
Test method. Dialysis membrane strips were soaked in ultra-pure water at room temperature for ˜1 hour. Each membrane strip containing 2 membranes was separated and soaked in 20:80 EtOH/H2O (v/v) for ˜20 min, after which they were ready for use or were stored in the solution at 2-8° C. for up to 1 month. Prior to the experiment, the membrane was rinsed and soaked for 20 min in ultra-pure water. On the day of experiment, brain homogenate was thawed in a water bath at room temperature and incubated at 37° C. for 10 min before use. Test and control compounds were dissolved in DMSO to achieve 10 mM stock solutions. DMSO working solutions were prepared at 400 μM by diluting 10 μL of stock solution. To prepare the time zero (t=0) samples to be used for recovery determination, 50 μL aliquots of loading matrix were transferred in triplicate to the sample collection plate. The samples were immediately matched with opposite blank buffer to obtain a final volume of 100 μL of 1:1 matrix/dialysis buffer (v/v) in each well. 500 μL of stop solution were added to these t=0 samples. They were then stored at 2-8° C. pending further processes along with other post-dialysis samples. To load the dialysis device, an aliquot of 150 μL of the loading matrix was transferred to the donor side of each dialysis well in triplicate, and 150 μL of the dialysis buffer was loaded to the receiver side of the well. The dialysis plate was placed in a humidified incubator at 37° C. with 5% CO2 on a shaking platform that rotated slowly (about 100 rpm) for 4 hours. At the end of the dialysis, aliquots of 50 μL of samples were taken from both the buffer side and the matrix side of the dialysis device. These samples were transferred into new 96-well plates. Each sample was mixed with an equal volume of opposite blank matrix (buffer or matrix) to reach a final volume of 100 μL of 1:1 matrix/dialysis buffer (v/v) in each well. All samples were further processed by adding 500 μL of stop solution containing internal standards. The mixture was vortexed and centrifuged at 4000 rpm for about 20 min. An aliquot of 100 μL of supernatant of all the samples was then removed for LC-MS/MS analysis. The single blank samples were prepared by transferring 50 μL of blank matrix to a 96-well plate and adding 50 μL of blank PBS buffer to each well. Then the matrix-matched samples were further processed by adding 500 μL of stop solution containing internal standards, following the same sample processing method as the dialysis samples.
Data analysis. The % undiluted unbound, % undiluted bound and % recovery were calculated using the following equations:
% Undiluted Unbound=100*1/D/((1/(F/T)−1)+1/D)
% Undiluted Bound=100−% Undiluted Unbound
where F is the analyte concentration or peak area ratio of analyte/internal standard on the buffer (receiver) side of the membrane; T is the analyte concentration or peak area ratio of analyte/internal standard on the matrix (donor) side of the membrane; To is the analyte concentration or the peak area ratio of analyte/internal standard in the loading matrix sample at time zero; and D is the dilution factor determined as 4 in this assay.
In general terms: Equilibrium dialysis compares concentrations on both sides of a semipermeable membrane.

The nature of series [2]: PK brain permeability in C57BL/6 mice after single oral gavage. The series is classed as in vivo. The note with it: 2 hours post dose; for concentration at 2 h / Kpu,u (unbound brain/plasma partition coefficient) at 2 h: male, C57BL/6, mouse; for concentration at 2 h: po, 10 mg/kg; for Kpu,u (unbound brain/plasma partition coefficient) at 2 h / brain permeability (in words): oral 10 mg/kg; for Kpu,u (unbound brain/plasma partition coefficient) at 2 h: read-out: Kpu,u (unbound partitioning coefficient, Cb,u/Cp,u); for brain permeability (in words): comment on Table 3. The method, then:
The distribution of compounds into the brain in vivo was determined in C57BL/6 mice following single oral (po) gavage administration.
Test compounds were formulated at 1 mg/mL in 0.5% HPMC E4 M, 0.2% Tween 80 in water to achieve solutions or homogenous suspensions suitable for po administration.
Formulations were administered to 3 male C57BL/6 mice at a volume of 10 mL/kg resulting in a dose level of 10 mg/kg. Blood samples were collected at 1 and 2 hours post dose into tubes containing K2EDTA as anticoagulant, processed to plasma and stored at −60° C. or lower until LC-MS/MS analysis. Brains were harvested 2 hours post dose, rinsed with saline, dried, weighed and homogenised under ice cold conditions. Brain homogenates were stored at −60° C. or lower until LC-MS/MS analysis.
Dose formulation concentrations were verified using a LC-UV or LC-MS/MS method. Test compound concentrations in plasma and brain homogenate were quantitatively determined using LC-MS/MS methods developed in individual matrices against calibration curves with QC samples included and acceptance criteria as per CRO SOPs. Concentrations in brain homogenate were corrected for the dilution factor used to prepare the homogenate to give concentrations in whole brain tissue.
Plasma and brain concentration versus time data were reported and plotted in excel. The brain to plasma ratio at 2 hours post dose was calculated for each animal using the following equation:
Brain:plasma=brain concentration (ng/g) at 2 h/plasma concentration (ng/mL) at 2 h
As only unbound test compound is available to exert an effect on the target, unbound plasma (Cp,u) and unbound brain (Cb,u) concentrations were calculated by correcting the total concentrations for the unbound fraction in plasma (fu,p) or brain (fu,b) determined from in vitro plasma protein or brain tissue binding assays using the following equations: […]
The unbound partitioning coefficient (Kpu,u) was then calculated based on the ratio of Cb,u to Cp,u using the following equation: […]
In these studies, mice were orally administrated a 10 mg/kg dose and sacrificed 2 hours post dose and tissue samples (brain homogenate and plasma) were analyzed subsequently as described above.

Setting [3] is: brain, read-out: total brain conc.
Setting [4] is: brain, total corrected for unbound fraction in brain, read-out: free brain conc.
[5] abbreviates: plasma, read-out: total plasma conc.
Setting [6] is: plasma, total corrected for unbound fraction in plasma, read-out: free plasma conc.

Sequence of Recombinant mouse CD38 (P56528 whole entry): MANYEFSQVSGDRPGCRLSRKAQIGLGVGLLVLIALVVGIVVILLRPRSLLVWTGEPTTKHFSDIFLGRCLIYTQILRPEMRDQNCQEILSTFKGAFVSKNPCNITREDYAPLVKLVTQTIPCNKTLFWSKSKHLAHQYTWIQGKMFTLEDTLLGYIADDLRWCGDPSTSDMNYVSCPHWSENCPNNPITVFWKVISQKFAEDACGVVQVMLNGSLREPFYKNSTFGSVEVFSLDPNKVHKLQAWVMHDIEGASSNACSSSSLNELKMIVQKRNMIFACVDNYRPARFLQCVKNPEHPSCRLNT

In general, IC50 refers to the concentration at which inhibition is half-maximal. For the compound `Cc1cc(C(=O)N[C@H]2CC[C@H](NCC(F)(F)F)CC2)nc(-n2ccnc2)n1` [Example 1, 2-(1H-imidazol-1-yl)-6-methyl-N-((1r,4r)-4-((2,2,2-trifluoroethyl)amino)cyclohexyl)pyrimidine-4-carboxamide], the IC50 at Recombinant mouse CD38 was at most 40 nM. Also, the “Mouse brain (% unbound)” value in series [1] was 68.9 % unbound. Further, the concentration at 2 h in series [2] (setting [3]) turned out to be 5510 nM; in series [2] (setting [4]), 3800 nM; in series [2] (setting [5]) it was 21900 nM; in series [2] (setting [6]), 2850 nM. Also, the Kpu,u (unbound brain/plasma partition coefficient) at 2 h in series [2] came out at 1.33.
In the case of `O=C(N[C@H]1CC[C@H](NCC(F)F)CC1)c1cc(C2CC2)nc(-n2ccnc2)n1` [Example 3, 6-cyclopropyl-N-((1r,4r)-4-((2,2-difluoroethyl)amino)cyclohexyl)-2-(1H-imidazol-1-yl)pyrimidine-4-carboxamide], the IC50 at Recombinant mouse CD38 was at most 40 nM. For the same compound, the “Mouse brain (% unbound)” value in series [1] stood at 13.5 % unbound. In addition, the concentration at 2 h in series [2] (setting [3]) amounted to 1660 nM; in series [2] (setting [4]), 224 nM; in series [2] (setting [5]), 6390 nM; in series [2] (setting [6]) it was 469 nM. Further, in series [2], the Kpu,u (unbound brain/plasma partition coefficient) at 2 h came to 0.48.
For `Cc1cc(C(=O)N[C@H]2CC[C@H](NC(C)(C)C(F)(F)F)CC2)nc(-n2ccnc2)n1` [Example 21, 2-(1H-imidazol-1-yl)-6-methyl-N-((1r,4r)-4-((1,1,1-trifluoro-2-methylpropan-2-yl)amino)cyclohexyl)pyrimidine-4-carboxamide], the IC50 at Recombinant mouse CD38 is at most 40 nM. In addition, the “Mouse brain (% unbound)” value in series [1] was 3.6 % unbound. Moreover, the concentration at 2 h was found to be 5470 nM in series [2] (setting [3]), 197 nM in series [2] (setting [4]), 11900 nM in series [2] (setting [5]) and 494 nM in series [2] (setting [6]). The Kpu,u (unbound brain/plasma partition coefficient) at 2 h in series [2] came to 0.4. Moreover, the “brain permeability (in words)” value in series [2] is “excellent brain permeability”.
Take `Cc1cc(C(=O)N[C@H]2CC[C@H](N3CCC(F)(F)C3)CC2)nc(-n2ccnc2)n1` [Example 10, N-((1r,4r)-4-(3,3-difluoropyrrolidin-1-yl)cyclohexyl)-2-(1H-imidazol-1-yl)-6-methyl-pyrimidine-4-carboxamide]: the IC50 on Recombinant mouse CD38 is at most 40 nM. Also, in series [1], the “Mouse brain (% unbound)” value stood at 9.7 % unbound. Further, the concentration at 2 h came out at 5200 nM in series [2] (setting [3]), 507 nM in series [2] (setting [4]), 15100 nM in series [2] (setting [5]) and 1610 nM in series [2] (setting [6]). The Kpu,u (unbound brain/plasma partition coefficient) at 2 h in series [2] amounted to 0.32. Besides, in series [2], the “brain permeability (in words)” value was “excellent brain permeability”.
Regarding `Cc1cc(C(=O)N[C@H]2CC[C@H](NCC(F)F)CC2)nc(-n2ccnc2)n1` [Example 2, N-((1r,4r)-4-((2,2-difluoroethyl)amino)cyclohexyl)-2-(1H-imidazol-1-yl)-6-methyl-pyrimidine-4-carboxamide], the IC50 on Recombinant mouse CD38 was at most 40 nM. Besides, the “Mouse brain (% unbound)” value in series [1] was found to be 63.4 % unbound. Moreover, the concentration at 2 h in series [2] (setting [3]) was 2190 nM; in series [2] (setting [4]), 1390 nM; in series [2] (setting [5]) it was 9370 nM; in series [2] (setting [6]) it was 2130 nM. For the same compound, in series [2], the Kpu,u (unbound brain/plasma partition coefficient) at 2 h stood at 0.65.

Values taken from US20250019369A1, “N-(4-aminocyclohexyl)pyrimidine-4-carboxamide derivatives as CD38 inhibitors” (Cerevance, Inc., priority 2021, published 2025).
